ChEMBL document CHEMBL1121395, “[5-(N4,N4-Dimethylasparagine),8-lysine]vasopressin: the first 5-position neurohypophyseal hormone analogue to retain to retain significant antidiuretic potency” (1980)

Columns and labels:
[1] = tested on: Rattus norvegicus; test: In vivo antidiuretic potency of compound was determined in rat
[2] = organism: Gallus gallus; test: Avian vasodepressor potency of compound was determined
[3] = organism: Rattus norvegicus; test: Pressor potency of compound was determined in rat; format: functional
[4] = organism: Rattus norvegicus; test: In vitro uterotonic potency of compound was determined in rat; format: functional

SMILES | Activity [1] | Activity [2] | Activity [3] | Activity [4]
NCCCC[C@H](NC(=O)[C@@H]1CCCN1C(=O)[C@@H]1CSSC[C@H](N)C(=O)N[C@@H](Cc2ccc(O)cc2)C(=O)N[C@@H](Cc2ccccc2)C(=O)N[C@@H](CCC(N)=O)C(=O)N[C@@H](CC(N)=O)C(=O)N1)C(=O)NCC(N)=O | 203 mg |  |  | 
CN(C)C(=O)C[C@@H]1NC(=O)[C@H](CCC(N)=O)NC(=O)[C@H](Cc2ccccc2)NC(=O)[C@H](Cc2ccc(O)cc2)NC(=O)[C@@H](N)CSSC[C@@H](C(=O)N2CCC[C@H]2C(=O)N[C@@H](CCCCN)C(=O)NCC(N)=O)NC1=O | 5.5 mg | 0.39 mg | 2.55 mg | < 0.05 mg
